{
  "source": "ChEMBL document CHEMBL4837230",
  "about": "“Thiophene-2-carboxamide derivatives of anthraquinone: A new potent antitumor chemotype” (Eur J Med Chem, 2021)",
  "key": {"[1]": {"test": "Cytotoxicity in human DND41 cells assessed as reduction in cell viability incubated for 72 hrs by MTT assay", "type": "functional, cell-based", "details": "DND41, 72 h"}, "K562 [2]": {"test_system": "K562", "test": "Induction of cell cycle arrest in human K562 cells assessed as increase in accumulation at sub-G1 phase at 5 uM after 48 hrs by propidium iodide staining based flow cytometric analysis (reference value: 8.4%)", "type": "functional"}, "K562 [3]": {"test_system": "K562", "test": "Induction of cell cycle arrest in human K562 cells assessed as increase in accumulation at sub-G1 phase at 5 uM after 24 hrs by propidium iodide staining based flow cytometric analysis (reference value: 8.4%)", "type": "functional"}, "K562 [4]": {"test_system": "K562", "test": "Induction of cell cycle arrest in human K562 cells assessed as increase in accumulation at sub-G1 phase at 2.5 uM after 48 hrs by propidium iodide staining based flow cytometric analysis (reference value: 8.4%)", "type": "functional"}, "K562 [5]": {"test_system": "K562", "test": "Induction of cell cycle arrest in human K562 cells assessed as increase in accumulation at sub-G1 phase at 0.5 uM after 24 hrs by propidium iodide staining based flow cytometric analysis (reference value: 8.4%)", "type": "functional"}, "HCT-116": {"test_system": "HCT-116", "test": "Cytotoxicity against p53 knock out human HCT-116 cells assessed as reduction in cell viability incubated for 72 hrs by MTT assay", "type": "functional, cell-based", "details": "HCT-116, 72 h"}, "U-937": {"test_system": "U-937", "test": "Cytotoxicity in human U-937 cells assessed as reduction in cell viability incubated for 72 hrs by MTT assay", "type": "functional, cell-based", "details": "U-937, 72 h"}, "K562 [6]": {"test_system": "K562", "test": "Cytotoxicity in human K562 cells assessed as reduction in cell viability at 0.5 uM incubated with compound for 120 mins followed by cell washing and measured after 72 hrs by propidium iodide staining based flow cytometric analysis", "type": "functional", "details": "2 h"}, "K562 [7]": {"test_system": "K562", "test": "Cytotoxicity in human K562 cells assessed as reduction in cell viability at 2.5 uM incubated with compound for 120 mins followed by cell washing and measured after 72 hrs by propidium iodide staining based flow cytometric analysis", "type": "functional", "details": "2 h"}, "[8]": {"biological_target": "T1, DNA topoisomerase 1 (Homo sapiens) (UniProt P11387)", "T1 sequence (whole entry)": "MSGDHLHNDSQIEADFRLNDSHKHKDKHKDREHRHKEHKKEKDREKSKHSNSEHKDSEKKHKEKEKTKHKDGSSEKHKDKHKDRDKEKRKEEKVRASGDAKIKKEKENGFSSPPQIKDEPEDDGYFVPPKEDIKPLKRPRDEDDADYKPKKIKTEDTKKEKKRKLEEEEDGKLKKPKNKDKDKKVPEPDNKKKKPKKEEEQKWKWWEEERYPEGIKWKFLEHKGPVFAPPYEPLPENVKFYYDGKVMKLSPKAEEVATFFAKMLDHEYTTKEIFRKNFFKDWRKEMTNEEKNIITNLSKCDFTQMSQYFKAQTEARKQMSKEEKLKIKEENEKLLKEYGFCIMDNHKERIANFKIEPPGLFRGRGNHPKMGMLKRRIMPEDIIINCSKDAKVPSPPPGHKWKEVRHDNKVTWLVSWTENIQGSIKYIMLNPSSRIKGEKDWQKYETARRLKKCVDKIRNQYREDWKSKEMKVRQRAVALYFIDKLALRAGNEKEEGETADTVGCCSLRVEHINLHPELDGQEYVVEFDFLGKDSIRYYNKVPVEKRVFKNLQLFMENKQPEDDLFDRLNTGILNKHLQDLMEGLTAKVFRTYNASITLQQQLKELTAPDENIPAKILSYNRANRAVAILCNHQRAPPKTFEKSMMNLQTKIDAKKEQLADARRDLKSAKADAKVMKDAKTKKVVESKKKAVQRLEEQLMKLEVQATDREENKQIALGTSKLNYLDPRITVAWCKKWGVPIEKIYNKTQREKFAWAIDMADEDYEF", "test": "Inhibition of topoisomerase 1 (unknown origin) assessed as relaxation of supercoiled plasmid pBR322 DNA at 1 to 5 uM incubated for 30 mins by electrophoresis", "details": "dose 1-5 µM"}, "K562 [9]": {"test_system": "K562", "test": "Induction of ROS generation in human K562 cells at 2.5 uM after 15 to 75 mins by Deep Red dye based flow cytometry method", "type": "functional, cell-based", "details": "time 15-75 min"}, "K562 [10]": {"test_system": "K562", "test": "Induction of cell cycle arrest in human K562 cells assessed as increase in accumulation at sub-G1 phase at 2.5 uM by flow cytometric analysis (reference value: 16.1%)", "type": "functional"}, "K562 [11]": {"test_system": "K562", "test": "Induction of cell cycle arrest in human K562 cells assessed as increase in accumulation at G0/G1 phase at 2.5 uM by flow cytometric analysis (reference value: 60.9%)", "type": "functional"}, "K562 [12]": {"test_system": "K562", "test": "Induction of cell cycle arrest in human K562 cells assessed as increase in accumulation at S phase at 2.5 uM by flow cytometric analysis (reference value: 11.2%)", "type": "functional"}, "K562 [13]": {"test_system": "K562", "test": "Induction of cell cycle arrest in human K562 cells assessed as increase in accumulation at G2/M phase at 2.5 uM after 2 hrs by flow cytometric analysis (reference value: 15.2%)", "type": "functional"}, "K562 [14]": {"test_system": "K562", "test": "Induction of cell cycle arrest in human K562 cells assessed as increase in accumulation at sub-G1 phase at 2.5 uM after 4 hrs by flow cytometric analysis (reference value: 14%)", "type": "functional"}, "K562 [15]": {"test_system": "K562", "test": "Induction of cell cycle arrest in human K562 cells assessed as increase in accumulation at G0/G1 phase at 2.5 uM after 4 hrs by flow cytometric analysis (reference value: 19.2%)", "type": "functional"}, "K562 [16]": {"test_system": "K562", "test": "Induction of cell cycle arrest in human K562 cells assessed as increase in accumulation at G2/M phase at 2.5 uM after 4 hrs by flow cytometric analysis (reference value: 19.7%)", "type": "functional"}, "K562 [17]": {"test_system": "K562", "test": "Induction of cell cycle arrest in human K562 cells assessed as increase in accumulation at G0/G1 phase at 2.5 uM after 6 hrs by flow cytometric analysis (reference value: 14.1%)", "type": "functional"}, "K562 [18]": {"test_system": "K562", "test": "Induction of cell cycle arrest in human K562 cells assessed as increase in accumulation at G2/M phase at 2.5 uM after 6 hrs by flow cytometric analysis (reference value: 26.8%)", "type": "functional"}, "K562 [19]": {"test_system": "K562", "test": "Induction of mitochondrial membrane potential loss in human K562 cells at 2.5 uM after 3 hrs by Mitotracker Red dye based flow cytometric analysis(reference value: 7.8 %)", "type": "functional"}, "K562 [20]": {"test_system": "K562", "test": "Induction of mitochondrial membrane potential loss in human K562 cells at 2.5 uM after 6 hrs by Mitotracker Red dye based flow cytometric analysis(reference value: 6.4 %)", "type": "functional"}, "[21]": {"test": "Drug localization in lysosome of mouse NIH3T3 cells at 1 uM incubated for 5 mins by lyso-tracker red based confocal microscopic method", "type": "ADME, cell-based", "details": "nih3t3, 5 min"}, "K562 [22]": {"test_system": "K562", "test": "Induction of apoptosis in human K562 cells assessed as late apoptotic cells after 3 hrs by Annexin V-APC/PI double staining based flow cytometric analysis (reference value: 2.6%)", "type": "functional"}, "K562 [23]": {"test_system": "K562", "test": "Induction of apoptosis in human K562 cells assessed as necrotic cells after 24 hrs by Annexin V-APC/PI double staining based flow cytometric analysis (reference value: 6.3%)", "type": "functional"}, "K562 [24]": {"test_system": "K562", "test": "Induction of apoptosis in human K562 cells assessed as activation of PARP cleavage at 2.5 uM measured after 6 hrs by Western blot analysis", "type": "functional, cell-based"}, "K562 [25]": {"test_system": "K562", "test": "Cytotoxicity against human K562 cells in presence of NAC", "type": "functional, cell-based"}, "[26]": {"test": "Drug localization in nuclei of mouse NIH3T3 cells at 1 uM incubated for 5 to 60 mins by Hoechst 33258 staining based laser confocal microscopy", "type": "ADME, cell-based", "details": "nih3t3, 1 µM, time 5-60 min"}},
  "note": "Activity calls are given as the source filed them. The rule behind the calls is not given here.",
  "data": [
    {"smiles": "N[C@H]1CCN(C(=O)c2cc3c(O)c4c(c(O)c3s2)C(=O)c2ccccc2C4=O)C1", "values": [
      {"measurement": "IC50", "setting": "[1]", "value": 0.4, "unit": "µM"},
      {"measurement": "Activity", "setting": "K562 [2]", "value": 89.7, "unit": "%"},
      {"measurement": "Activity", "setting": "K562 [3]", "value": 78.4, "unit": "%"},
      {"measurement": "Activity", "setting": "K562 [4]", "value": 84.5, "unit": "%"},
      {"measurement": "Activity", "setting": "K562 [5]", "value": 18.7, "unit": "%"},
      {"measurement": "IC50", "setting": "HCT-116", "value": 0.5, "unit": "µM"},
      {"measurement": "IC50", "setting": "U-937", "value": 0.2, "unit": "µM"},
      {"measurement": "Activity", "setting": "K562 [6]", "value": 8.7, "unit": "%"},
      {"measurement": "Activity", "setting": "K562 [7]", "value": 76.5, "unit": "%"},
      {"measurement": "inhibition", "setting": "[8]", "value": "inactive"},
      {"measurement": "Activity", "setting": "K562 [9]", "value": "inactive"},
      {"measurement": "Activity", "setting": "K562 [10]", "value": 14.9, "unit": "%"},
      {"measurement": "Activity", "setting": "K562 [11]", "value": 59.1, "unit": "%"},
      {"measurement": "Activity", "setting": "K562 [12]", "value": 12, "unit": "%"},
      {"measurement": "Activity", "setting": "K562 [13]", "value": 15.9, "unit": "%"},
      {"measurement": "Activity", "setting": "K562 [14]", "value": 14.5, "unit": "%"},
      {"measurement": "Activity", "setting": "K562 [15]", "value": 28.1, "unit": "%"},
      {"measurement": "Activity", "setting": "K562 [16]", "value": 17.3, "unit": "%"},
      {"measurement": "Activity", "setting": "K562 [17]", "value": 31.7, "unit": "%"},
      {"measurement": "Activity", "setting": "K562 [18]", "value": 13.9, "unit": "%"},
      {"measurement": "Activity", "setting": "K562 [19]", "value": 19.8, "unit": "%"},
      {"measurement": "Activity", "setting": "K562 [20]", "value": 33.3, "unit": "%"},
      {"measurement": "Drug uptake", "setting": "[21]", "value": "Active"},
      {"measurement": "Activity", "setting": "K562 [22]", "value": 13.2, "unit": "%"},
      {"measurement": "Activity", "setting": "K562 [23]", "value": 48.8, "unit": "%"},
      {"measurement": "Activity", "setting": "K562 [24]", "value": "Active"},
      {"measurement": "Activity", "setting": "K562 [25]", "value": "Active"},
      {"measurement": "Drug uptake", "setting": "[26]", "value": "Not Active"}
    ]}
  ]
}
